Reference: PubChem BioAssay AID1645866 (Buhrlage Lab, Dana-Farber Cancer Institute and Novartis …, 2021)
pIC50: −log10 of the molar value. Activity calls are given as the source filed them.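 Rule for the calls: active = in confirmatory dose-response testing, peak deubiquitinase inhibition of 30% or more; inactive = the rest.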

Molecular target: Ubiquitin carboxyl-terminal hydrolase 28 (Homo sapiens) (UniProt Q96RU2)
Test: Concentration-response biochemical assay confirming initial hits as inhibitors of ubiquitin-specific protease 28 (AID 1645866)
Conditions: purified USP28, ubiquitin-rhodamine fluorescence, 30 min

Sequence of Ubiquitin carboxyl-terminal hydrolase 28 (Homo sapiens) (Q96RU2 whole entry, looked up): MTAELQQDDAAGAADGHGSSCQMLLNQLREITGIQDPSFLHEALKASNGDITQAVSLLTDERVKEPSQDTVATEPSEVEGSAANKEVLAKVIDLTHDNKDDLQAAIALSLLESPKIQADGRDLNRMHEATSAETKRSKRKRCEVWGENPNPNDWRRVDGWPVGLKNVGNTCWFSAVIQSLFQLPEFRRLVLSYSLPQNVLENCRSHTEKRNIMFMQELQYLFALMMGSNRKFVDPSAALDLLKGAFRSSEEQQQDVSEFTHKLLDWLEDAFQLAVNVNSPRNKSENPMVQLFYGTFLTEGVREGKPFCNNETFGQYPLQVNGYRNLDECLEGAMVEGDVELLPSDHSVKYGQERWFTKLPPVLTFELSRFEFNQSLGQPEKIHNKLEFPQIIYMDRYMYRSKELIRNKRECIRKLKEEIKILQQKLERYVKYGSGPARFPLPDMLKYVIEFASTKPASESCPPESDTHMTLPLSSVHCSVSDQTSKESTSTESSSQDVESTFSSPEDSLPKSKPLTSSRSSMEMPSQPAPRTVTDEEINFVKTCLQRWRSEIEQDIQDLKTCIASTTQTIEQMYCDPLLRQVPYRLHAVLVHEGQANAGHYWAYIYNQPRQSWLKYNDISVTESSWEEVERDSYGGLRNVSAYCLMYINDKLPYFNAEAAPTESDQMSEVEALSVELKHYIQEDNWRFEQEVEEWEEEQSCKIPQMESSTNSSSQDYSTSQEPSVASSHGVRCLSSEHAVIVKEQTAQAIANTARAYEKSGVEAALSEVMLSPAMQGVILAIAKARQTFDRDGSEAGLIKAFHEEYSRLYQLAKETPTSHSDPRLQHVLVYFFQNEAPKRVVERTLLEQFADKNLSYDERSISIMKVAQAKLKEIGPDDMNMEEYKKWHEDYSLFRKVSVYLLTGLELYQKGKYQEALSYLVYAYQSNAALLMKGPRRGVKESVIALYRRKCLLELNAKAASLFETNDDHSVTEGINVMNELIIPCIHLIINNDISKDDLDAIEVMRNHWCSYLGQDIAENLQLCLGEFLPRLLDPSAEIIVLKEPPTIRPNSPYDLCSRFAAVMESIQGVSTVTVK

SMILES | pIC50 | IC50
Cc1ccc(CN2C(=O)c3cc4ccccc4n3CC2(C)C(=O)NCc2ccccc2)o1 (configuration not stated) | 4.35 | –
Nc1ccccc1SCc1noc(-c2cccs2)n1 | 5.18 | –
COc1cccc(/C=C/C(=O)Nc2ccc(N3CCOCC3)cc2)c1OC | 5.63 | –
CN1C(=O)[C@]23CC4=CC=C[C@H](O)[C@H]4N2C(=O)[C@@]1(CO)SS3 | – | > 50 µM (inactive)
COc1ccc(NC(=O)C2[C@@H]3C(=O)N(C4CCCCC4)C(=O)[C@@H]3[C@H]3c4ccccc4C=CN23)cc1 (some centres not stated) | 4.43 | –
O=C1Cc2ccccc2C(=O)N1c1ccc2c(c1)OCO2 | 4.61 | –
O=C1CC(c2cc3c(cc2Br)OCO3)c2cc3c(cc2N1)OCCO3 (configuration not stated) | 4.83 | –
C[C@]12C(=O)N(c3ccc(C(=O)NCc4ccc(F)cc4)cc3)C(=O)N1CCc1c2[nH]c2ccccc12 | 4.39 | –
O=C(/C=C/c1ccc(F)cc1)N1CCc2ccccc2C1 | 4.45 | –
O=C(/C=C/c1ccc2c(c1)OCO2)Nc1nc2c(s1)COCC2 | 4.56 | –
COc1ccc(-n2nnc3c(SCC(=O)Nc4cc(C)on4)ncnc32)cc1 | – | > 50 µM (inactive)
Cc1ccc(C2c3c(-c4ccccc4O)n[nH]c3C(=O)N2Cc2ccco2)cc1 (configuration not stated) | 4.70 | –
O=C(c1ccco1)N1CCCC2(C1)Nc1cccnc1NC2=NC1CCCC1 (configuration not stated) | – | > 50 µM (inactive)
O=C(c1ccnn1-c1ccc2ccc(-c3ccncc3)cn12)N1CCCC1 | – | > 50 µM (inactive)
Cc1cccc(NC(=O)Nc2nnc(CC(=O)NCc3ccccc3)s2)c1 | 4.95 | –
Fc1ccc(Cc2nc(-c3ccc4nncn4c3)no2)cc1 | 4.82 | –
Cc1ccc(C2c3cccn3CCN2C(=O)Nc2ccccc2)cc1 (configuration not stated) | – | > 50 µM (inactive)
CCc1ccc(OCc2nnc(SCC(=O)Nc3ccccc3OC)n2Cc2ccccc2)cc1 | – | > 50 µM (inactive)
O=C(COc1ccc2c(c1)CCC2)Nc1ccc2c(c1)CCC2 | 4.42 | –
Cn1ccnc1CN1C[C@H]2CCN(c3ncccn3)C[C@H]2C1 | – | > 50 µM (inactive)
CSc1cccc(NC(=O)CNC(=O)c2cc3ccccc3o2)c1 | 4.34 | –

SMILES | pIC50 | IC50
N#Cc1c(SCCO)nc(N2CCCC2)c2c1CCCC2 | 5.19 | –
Clc1cccc(N2CCN(c3ncnc4nc[nH]c34)CC2)c1 | 4.40 | –
Cc1cc(NC(=O)c2cc(-c3cccnc3)n[nH]2)ccc1Br | 5.99 | –
O=C(Nc1ccc(Oc2cccc3cccnc23)cc1)c1cccs1 | 6.27 | –
Cc1c(C)n(-c2ccccc2)c2ncn(CC(=O)NCCCc3ccccc3)c(=O)c12 | 4.64 | –
COc1cc2cc3c(c(O)c2c(O)c1-c1c(OC)cc2cc4c(c(O)c2c1O)C(=O)OC1CC(C)OC41)C(=O)OC1CC(C)OC31 (configuration not stated) | – | > 50 µM (inactive)
COCCNC(=O)c1cc(-c2cn(-c3ccccn3)c(C)n2)n2ccccc12 | – | > 50 µM (inactive)
CCn1c(SCC(=O)N2c3ccccc3CC2C)nnc1-c1ccc2c(c1)OCCO2 (configuration not stated) | 4.47 | –
Fc1ccccc1N1CCN(c2ncc3c(n2)CCN(Cc2ccccn2)C3)CC1 | 4.51 | –
COc1ccc(NC(=O)CSc2nc(N)c3c4c(sc3n2)COC(C)(C)C4)cc1 | 4.34 | –
O=C(NCc1cccnc1)c1cnn2c(C(F)(F)F)cc(-c3ccccc3)nc12 | – | > 50 µM (inactive)
Cc1nc(-c2noc3ccc(C(=O)Nc4cccnc4)cc23)cs1 | 4.80 | –
O=C(COC(=O)c1cc2c(s1)CCC2)c1ccc2[nH]c(=O)[nH]c2c1 | 5.19 | –
CC(=O)Nc1ccc(S(=O)(=O)N2CCCC(C(=O)Nc3cccc4ccccc34)C2)cc1 (configuration not stated) | 4.72 | –
CCOC(=O)Nc1ccc(N2CCn3c(nc4ccccc43)C2)cc1OC | – | > 50 µM (inactive)
Cc1ccc(CNC(=O)CCCn2c(=O)c3sccc3n(CC(=O)Nc3cc(Cl)ccc3C)c2=O)cc1 | 5.54 | –
COc1cc(Cl)ccc1C(=O)Nc1cccc(-n2cnnn2)c1C | 4.95 | –
COc1ccc(Cl)c(NC(=O)C2CC(=O)Nc3cc(-c4ccccc4)nn32)c1 (configuration not stated) | 4.76 | –
Fc1ccc(Cn2ccc(-c3cnc(-c4ccccc4)s3)n2)cc1 | 4.56 | –
CC(C)c1cc(NCc2ccccc2)n2nc(-c3cccnc3)nc2n1 | 4.77 | –
Cc1cc(-c2cnc(N(C)C)nc2-c2ccc(CNC(=O)Cc3ccc(F)cc3)cc2)on1 | 4.54 | –
